{"source": "paper PMC12610274", "about": "“Identification of Marrubiin as a Cathepsin C Inhibitor for Treating Rheumatoid Arthritis” (Molecules, 2025)", "key": {"[1]": {"tested_on": "LPS-induced NO release by RAW 264.7 macrophages", "test": "LPS-induced NO release, Griess reagent", "assay_type": "cell-based", "conditions": "Mus musculus, RAW264.7; LPS-stimulated RAW 264.7, 24 h", "experimental": "RAW264.7 cells in the logarithmic growth phase were counted and diluted to a concentration of 6 × 10^4 cells/mL. After thorough mixing, the cell suspension was seeded into 48-well plates and incubated in a humidified atmosphere containing 5% CO2 at 37 °C. Following 24 h of incubation, the culture medium was carefully aspirated, and the cells were gently washed with phosphate-buffered saline. […] After 1 h of pre-incubation, 30 μL of lipopolysaccharide (1 μg/mL) was added to each well except for the blank control group, which remained unstimulated. Following an additional 24 h incubation under identical conditions, the culture supernatants were collected to assess NO production using the Griess reagent assay. Concentrations of pro-inflammatory cytokines and chemokines were determined using commercially available ELISA kits according to the protocols."}, "[2]": {"tested_on": "Cat G", "test": "NSPs activity in U937 cells after 5 days of treatment, Cat G", "assay_type": "cell-based, human", "conditions": "U937, 10 μM", "experimental": "(§1) U937 cells in the logarithmic growth phase were collected and equally divided into six portions. Four of these portions were treated with DMSO solutions of the test compound at varying concentrations to achieve final concentrations of 1.25, 2.5, 5, and 10 μM, respectively. An equal volume of DMSO was added to one portion as a blank control, while another portion treated with a DMSO solution of AZD7986 served as a positive control. The cells were cultured under standard U937 conditions for 5 consecutive days, with daily medium changes and fresh compound treatments administered using the same protocol. Following 5 days of treatment, cells were harvested, washed twice thoroughly with phosphate-buffered saline, and lysed in phosphate-buffered saline containing 1% Triton X-100. The lysates were centrifuged to collect the supernatant, and protein concentrations were determined as previously described to ensure equal total protein loading across all samples. The prepared samples were stored at −20 °C until further analysis. Different assay buffers were prepared for diluting samples and measuring the activities of specific NSPs: a buffer containing 50 mM Tris and 750 mM NaCl (pH 7.4) was used for NE and PR3; a buffer containing 50 mM Tris, 750 mM NaCl, 5 mM EDTA (pH 7.4) was used for Cat G; and a buffer containing 25 mM MES, 50 mM NaCl, 5 mM DTT (pH 6.0) was used for CTSC. […]"}, "[3]": {"biological_target": "T1, CTSC (Homo sapiens, UniProt P53634)", "T1 sequence (P53634 25-463)": "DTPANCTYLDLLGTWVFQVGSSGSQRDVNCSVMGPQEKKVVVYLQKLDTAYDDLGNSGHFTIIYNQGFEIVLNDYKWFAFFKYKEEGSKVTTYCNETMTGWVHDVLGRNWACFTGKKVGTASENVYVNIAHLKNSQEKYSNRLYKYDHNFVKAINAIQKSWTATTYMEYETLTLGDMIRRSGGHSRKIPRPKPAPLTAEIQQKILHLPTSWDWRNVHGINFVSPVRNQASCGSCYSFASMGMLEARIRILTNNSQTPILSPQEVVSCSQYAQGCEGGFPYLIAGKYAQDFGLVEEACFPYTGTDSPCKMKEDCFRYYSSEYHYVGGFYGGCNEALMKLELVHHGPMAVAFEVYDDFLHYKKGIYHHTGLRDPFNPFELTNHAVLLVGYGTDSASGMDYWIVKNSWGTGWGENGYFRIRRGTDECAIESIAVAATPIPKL", "test": "Cellular thermal shift assay (CETSA) in U937 cells", "assay_type": "binding", "parameters": "endogenous in cells; host or cells: U937", "conditions": "DMSO control 49 °C", "experimental": "The Western blot experiments in this study were performed as described below. Cells in the logarithmic growth phase were collected in appropriate numbers according to different experimental purposes. After being thoroughly washed with phosphate-buffered saline and centrifuged, the cell pellets were resuspended in phosphate-buffered saline to obtain single-cell suspensions. Cells were fully lysed using RIPA buffer (Beyotime, P0013B) supplemented with EDTA-free protease and phosphatase inhibitor (Abcam, ab201120). Total cellular protein solutions were obtained after centrifugation to remove cell debris. The isolated proteins were quantified using the BeyoBCA protein assay kit (Beyotime, P0399M) following the operational protocol. The quantified protein samples were thoroughly mixed with protein loading buffer, boiled on a dry bath for 5 min, and then cooled to room temperature for Western blot analysis. […] Finally, enhanced chemiluminescent horseradish peroxidase substrate (Tanon Science & Technology Co., Ltd., Shanghai, China, 180-506) was used to visualize protein bands on a ChemiDoc XRS system (Bio-Rad Laboratories, Inc., Hercules, CA, USA), and the protein bands were quantified using Image Lab analysis software (Version 6.1) (Bio-Rad). […]"}, "[4]": {"biological_target": "T1, CTSC", "test": "CTSC activity in U937 cells after 5 days of treatment", "assay_type": "cell-based", "parameters": "endogenous in cells; host or cells: U937", "conditions": "U937, 5 days, marrubiin and AZD7986 at the same concentration", "experimental": "as §1"}}}
{"smiles": "C[C@@H]1C[C@H]2OC(=O)[C@@]3(C)CCC[C@@](C)([C@@H]23)[C@@]1(O)CCc1ccoc1", "note": "[Marrubiin, marrubiin]", "values": [{"measurement": "IC50", "setting": "[1]", "value": 830, "unit": "nM"}, {"measurement": "Cat G activity, % of DMSO group", "setting": "[2]", "value": 16.9, "unit": "%"}, {"measurement": "temperature at which significant CTSC degradation occurred", "setting": "[3]; 10 μM", "value": "approximately 61 °C"}, {"measurement": "temperature at which significant CTSC degradation occurred", "setting": "[3]; 20 μM", "value": "~67", "unit": "°C"}, {"measurement": "residual CTSC activity", "setting": "[4]", "value": "less than 8%"}]}
